According to the supplement of paper PMC8671470:

What was measured:
ML-2 = assay: cell viability (% survival relative to DMSO control, bortezomib = 0%); higher = less cytotoxic; settings: 72 h
How it was run: (§1)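 Fifteen myeloid leukaemia cell lines (10 AML, 5 CML) were seeded at a density titrated to the linear growth range into 384-well plates pre-printed with compounds at 1, 10, 100, 1000 or 10000 nM in duplicate. Plates were incubated for 72 h at 37 °C with 5% CO2. Viability was then read by CellTiter-Glo luminescence. Each value is percent survival averaged over the duplicates, with vehicle set to 100% and a 10 µM positive control to 0%.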

KCL-22 = assay: as above; settings: 72 h
How it was run: as §1

Compound | cell viability (ML-2; 1 nM) [%] | cell viability (ML-2; 10 nM) [%] | cell viability (ML-2; 100 nM) [%] | cell viability (ML-2; 1000 nM) [%] | cell viability (ML-2; 10000 nM) [%] | cell viability (KCL-22; 1 nM) [%] | cell viability (KCL-22; 10 nM) [%] | cell viability (KCL-22; 100 nM) [%] | cell viability (KCL-22; 1000 nM) [%] | cell viability (KCL-22; 10000 nM) [%]
O=C(O)c1nn(Cc2ccc(Cl)cc2Cl)c2ccccc12 [Lonidamine] | 102 | 106 | 101 | 93.7 | 95.1 | 103 | 111 | 107 | 84 | 90.7
C1CCc2nnc(C34CC5CC(CC(C5)C3)C4)n2CC1 [MERCK-544] | 101 | 97.5 | 93.5 | 87.7 | 96.6 | 99.2 | 106 | 95.8 | 106 | 116
CC(Cc1ccc(O)c(O)c1)C(C)Cc1ccc(O)c(O)c1 (stereo not given) [Masoprocol] | 99.2 | 103 | 96.1 | 101 | 3.98 | 99.8 | 85.9 | 120 | 108 | 66.2
CC(C(=O)O)C(=O)O [Methylmalonate] | 87.4 | 96.5 | 96.6 | 92.2 | 87.9 | 91.7 | 100 | 112 | 88.3 | 93.6
COc1c(C)c2c(c(O)c1C/C=C(\C)CCC(=O)O)C(=O)OC2 [Mycophenolic acid] | 116 | 105 | 86.5 | 22.7 | 8.02 | 105 | 98.8 | 79.8 | 24.7 | 8.9
C1CCC(C(CC2CCCCN2)C2CCCCC2)CC1.O=C(O)/C=C\C(=O)O (stereo not given) [Perhexiline] | 76.3 | 87.2 | 89.7 | 92.8 | 0.081 | 92 | 79.3 | 94.3 | 101 | 1.14
OCCN1CCN(CCCN2c3ccccc3Sc3ccc(Cl)cc32)CC1 [Perphenazine] | 99.6 | 95.4 | 96.6 | 101 | 34.4 | 122 | 107 | 102 | 111 | 39.6
C=CCc1ccc2c(c1O)C(=O)c1ccccc1C2=O [R162] | 99.4 | 99.2 | 97.8 | 101 | 90.8 | 100 | 98.3 | 101 | 96.6 | 96.7
O=C(c1ccc(OCCN2CCCCC2)cc1)c1c(-c2ccc(O)cc2)sc2cc(O)ccc12 [Raloxifene] | 101 | 91.2 | 101 | 96.9 | 82.9 | 93.9 | 92.7 | 100 | 94.5 | 75.8
